Patent US20070031341A1, “Methods of delivering therapeutics to the brain” (priority 2005, published 2007)

Key:
[1] = pKa and protonated cationic fraction of lubeluzole; assay type: physicochemical
Source text: Because lubeluzole has a PKa of 7.6 it is present in its protonated cationic form at pHs less than 7.6. For example, at pHs of 7.4 and 6.0, about 61% and 97% of lubeluzole is respectively present in its protonated cationic form. Therefore, the skilled artisan can expect a significant amount of lubeluzole to be present in its cationic form at relatively mild pHs and particularly at the pHs of physiologic CSF (˜7.5). Moreover, support for the transport of benzothiazole derivatives is found in the literature. Levamisole is believed to be a benzothiazole derivativethat has been transdermally transported iontophoretically in order to treat herpes simplex virus and recurrent aphthous stomatitis.

[2] = cited from earlier work
[3] = test system: cerebellar granule cells exposed to MPP+ neurotoxin; conditions: 100 μM Vitamin E; about 50% without; cited from earlier work

lubeluzole present in its protonated cationic form ([1]; pH 6.0) | lubeluzole present in its protonated cationic form ([1]; pH 7.4) | Compound | PKa [2] | in vitro viability of cerebellar granule cells exposed to MPP+ [3]
~97% | about 61% | CN(c1nc2ccccc2s1)C1CCN(C[C@H](O)COc2ccc(F)c(F)c2)CC1 [lubeluzole] | 7.6 | 
 |  | Vitamin E |  | about 85%
